# Laboratory results reported in PubChem BioAssay (NCI).
#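 Grown in 96-well plates, cells were treated for 48 hours with each compound at five concentrations. Insufficient inhibition: endpoint recorded as highest concentration tested. Abbreviation: GI50, concentration required for 50% inhibition of growth. At the TGI there is no net growth.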
# Experiments:
# Test in all cases: NCI-60 cell line screen, 48 h
# K-562 leukemia = tested on: K-562 leukemia
# M14 melanoma = tested on: M14 melanoma
# U251 CNS = tested on: U251 CNS
# HS 578T breast = tested on: HS 578T breast
# NCI/ADR-RES ovarian = tested on: NCI/ADR-RES ovarian
# CCRF-CEM leukemia = tested on: CCRF-CEM leukemia
# HOP-62 NSCLC = tested on: HOP-62 NSCLC
# NCI-H460 lung = tested on: NCI-H460 lung
# MDA-MB-435 = tested on: MDA-MB-435
# HCT-15 colon = tested on: HCT-15 colon
# SNB-19 CNS = tested on: SNB-19 CNS
# SK-MEL-2 melanoma = tested on: SK-MEL-2 melanoma
# HT29 colon = tested on: HT29 colon
# A498 renal = tested on: A498 renal
# HL-60(TB) leukemia = tested on: HL-60(TB) leukemia
# CAKI-1 renal = tested on: CAKI-1 renal
# OVCAR-5 ovarian = tested on: OVCAR-5 ovarian
# OVCAR-3 ovarian = tested on: OVCAR-3 ovarian
# SW-620 colon = tested on: SW-620 colon
# OVCAR-8 ovarian = tested on: OVCAR-8 ovarian
# SF-539 CNS = tested on: SF-539 CNS
# A549 NSCLC = tested on: A549 NSCLC
# BT-549 breast = tested on: BT-549 breast
# MCF7 breast = tested on: MCF7 breast
# SF-268 CNS = tested on: SF-268 CNS
# DU-145 prostate = tested on: DU-145 prostate
# TK-10 renal = tested on: TK-10 renal
# NCI-H23 lung = tested on: NCI-H23 lung
# ACHN renal = tested on: ACHN renal
# UACC-257 melanoma = tested on: UACC-257 melanoma
# 786-0 renal = tested on: 786-0 renal
# IGROV1 ovarian = tested on: IGROV1 ovarian
# UO-31 renal = tested on: UO-31 renal
# NCI-H522 lung = tested on: NCI-H522 lung
# SR leukemia = tested on: SR leukemia
# RXF 393 renal = tested on: RXF 393 renal
# HOP-92 NSCLC = tested on: HOP-92 NSCLC
# MOLT-4 leukemia = tested on: MOLT-4 leukemia
# MALME-3M melanoma = tested on: MALME-3M melanoma
# SF-295 CNS = tested on: SF-295 CNS
# LOX IMVI melanoma = tested on: LOX IMVI melanoma
# T-47D breast = tested on: T-47D breast
# SK-MEL-5 melanoma = tested on: SK-MEL-5 melanoma
# SNB-75 CNS = tested on: SNB-75 CNS
# SK-OV-3 ovarian = tested on: SK-OV-3 ovarian
# MDA-MB-231 breast = tested on: MDA-MB-231 breast
# SK-MEL-28 melanoma = tested on: SK-MEL-28 melanoma
# OVCAR-4 ovarian = tested on: OVCAR-4 ovarian
# EKVX NSCLC = tested on: EKVX NSCLC
# RPMI-8226 leukemia = tested on: RPMI-8226 leukemia
# SN12C renal = tested on: SN12C renal
# COLO 205 colon = tested on: COLO 205 colon
# KM12 colon = tested on: KM12 colon
# HCT-116 colon = tested on: HCT-116 colon
# UACC-62 melanoma = tested on: UACC-62 melanoma
# NCI-H226 lung = tested on: NCI-H226 lung
# PC-3 prostate = tested on: PC-3 prostate
compound,measurement,setting,value
Cc1cccnc1CNC1CC(NCc2ncccc2C)CC(NCc2ncccc2C)C1 (centres undefined),GI50,K-562 leukemia,2.38 µM
same,TGI,K-562 leukemia,5.56 µM
same,GI50,M14 melanoma,1.96 µM
same,TGI,M14 melanoma,4.35 µM
same,GI50,U251 CNS,1.81 µM
same,TGI,U251 CNS,3.36 µM
same,GI50,HS 578T breast,3.39 µM
same,TGI,HS 578T breast,16.2 µM
same,GI50,NCI/ADR-RES ovarian,19.3 µM
same,TGI,NCI/ADR-RES ovarian,> 100 µM
same,GI50,CCRF-CEM leukemia,2.18 µM
same,TGI,CCRF-CEM leukemia,4.71 µM
same,GI50,HOP-62 NSCLC,1.96 µM
same,TGI,HOP-62 NSCLC,4.52 µM
same,GI50,NCI-H460 lung,2.41 µM
same,TGI,NCI-H460 lung,6.03 µM
same,GI50,MDA-MB-435,4.16 µM
same,TGI,MDA-MB-435,10.7 µM
same,GI50,HCT-15 colon,4.05 µM
same,TGI,HCT-15 colon,13.3 µM
same,GI50,SNB-19 CNS,2.04 µM
same,TGI,SNB-19 CNS,4.03 µM
same,GI50,SK-MEL-2 melanoma,3.9 µM
same,TGI,SK-MEL-2 melanoma,> 100 µM
same,GI50,HT29 colon,3.36 µM
same,TGI,HT29 colon,> 39.3 µM
same,GI50,A498 renal,1.78 µM
same,TGI,A498 renal,3.3 µM
same,GI50,HL-60(TB) leukemia,2.47 µM
same,TGI,HL-60(TB) leukemia,5.98 µM
same,GI50,CAKI-1 renal,4.84 µM
same,TGI,CAKI-1 renal,21.8 µM
same,GI50,OVCAR-5 ovarian,1.92 µM
same,TGI,OVCAR-5 ovarian,5.23 µM
same,GI50,OVCAR-3 ovarian,3.1 µM
same,TGI,OVCAR-3 ovarian,8.94 µM
same,GI50,SW-620 colon,2.04 µM
same,TGI,SW-620 colon,5.8 µM
same,GI50,OVCAR-8 ovarian,2.2 µM
same,TGI,OVCAR-8 ovarian,4.87 µM
same,GI50,SF-539 CNS,2.92 µM
same,TGI,SF-539 CNS,9.38 µM
same,GI50,A549 NSCLC,2.01 µM
same,TGI,A549 NSCLC,4.21 µM
same,GI50,BT-549 breast,2.95 µM
same,TGI,BT-549 breast,7.82 µM
same,GI50,MCF7 breast,2.39 µM
same,TGI,MCF7 breast,5.21 µM
same,GI50,SF-268 CNS,1.99 µM
same,TGI,SF-268 CNS,4.05 µM
same,GI50,DU-145 prostate,1.88 µM
same,TGI,DU-145 prostate,3.58 µM
same,GI50,TK-10 renal,3.49 µM
same,TGI,TK-10 renal,11.3 µM
same,GI50,NCI-H23 lung,2.8 µM
same,TGI,NCI-H23 lung,6.82 µM
same,GI50,ACHN renal,3.22 µM
same,TGI,ACHN renal,11.2 µM
same,GI50,UACC-257 melanoma,1.74 µM
same,TGI,UACC-257 melanoma,3.58 µM
same,GI50,786-0 renal,2.15 µM
same,TGI,786-0 renal,4.55 µM
same,GI50,IGROV1 ovarian,3.89 µM
same,TGI,IGROV1 ovarian,40.3 µM
same,GI50,UO-31 renal,4.85 µM
same,TGI,UO-31 renal,22.5 µM
same,GI50,NCI-H522 lung,2.69 µM
same,TGI,NCI-H522 lung,12.2 µM
same,GI50,SR leukemia,0.406 µM
same,TGI,SR leukemia,2.09 µM
same,GI50,RXF 393 renal,1.92 µM
same,TGI,RXF 393 renal,3.9 µM
same,GI50,HOP-92 NSCLC,1.1 µM
same,TGI,HOP-92 NSCLC,2.3 µM
same,GI50,MOLT-4 leukemia,2.72 µM
same,TGI,MOLT-4 leukemia,5.38 µM
same,GI50,MALME-3M melanoma,2.84 µM
same,TGI,MALME-3M melanoma,9.46 µM
same,GI50,SF-295 CNS,3.12 µM
same,TGI,SF-295 CNS,8.6 µM
same,GI50,LOX IMVI melanoma,1.92 µM
same,TGI,LOX IMVI melanoma,3.96 µM
same,GI50,T-47D breast,1.94 µM
same,TGI,T-47D breast,3.89 µM
same,GI50,SK-MEL-5 melanoma,1.92 µM
same,TGI,SK-MEL-5 melanoma,3.83 µM
same,GI50,SNB-75 CNS,2.21 µM
same,TGI,SNB-75 CNS,4.32 µM
same,GI50,SK-OV-3 ovarian,1.98 µM
same,TGI,SK-OV-3 ovarian,3.73 µM
same,GI50,MDA-MB-231 breast,1.6 µM
same,TGI,MDA-MB-231 breast,3.56 µM
same,GI50,SK-MEL-28 melanoma,3.17 µM
same,TGI,SK-MEL-28 melanoma,12.4 µM
same,GI50,OVCAR-4 ovarian,2.88 µM
same,TGI,OVCAR-4 ovarian,11.9 µM
same,GI50,EKVX NSCLC,2.56 µM
same,TGI,EKVX NSCLC,8.14 µM
same,GI50,RPMI-8226 leukemia,1.91 µM
same,TGI,RPMI-8226 leukemia,4.3 µM
same,GI50,SN12C renal,1.61 µM
same,TGI,SN12C renal,3.11 µM
same,GI50,COLO 205 colon,2.03 µM
same,TGI,COLO 205 colon,4.25 µM
same,GI50,KM12 colon,4.51 µM
same,TGI,KM12 colon,20.4 µM
same,GI50,HCT-116 colon,1.63 µM
same,TGI,HCT-116 colon,3.24 µM
same,GI50,UACC-62 melanoma,1.82 µM
same,TGI,UACC-62 melanoma,3.63 µM
same,GI50,NCI-H226 lung,1.65 µM
same,TGI,NCI-H226 lung,3.17 µM
same,GI50,PC-3 prostate,2.3 µM
same,TGI,PC-3 prostate,4.52 µM
